Among the data in patent publication US8163771B2, “11 β-HSD1 modulators” (Exelixis, Inc., priority 2008, dated 2012) are IC50 values, retold here.

Structures are written as SMILES.

As usually defined, the IC50 is the concentration at which inhibition is half-maximal.

In this test the target is T1, recombinant human 11 β-HSD1 (Homo sapiens, UniProt P28845).
T1 construct: made in house; host or cells: E. coli
T1 sequence (P28845 whole entry): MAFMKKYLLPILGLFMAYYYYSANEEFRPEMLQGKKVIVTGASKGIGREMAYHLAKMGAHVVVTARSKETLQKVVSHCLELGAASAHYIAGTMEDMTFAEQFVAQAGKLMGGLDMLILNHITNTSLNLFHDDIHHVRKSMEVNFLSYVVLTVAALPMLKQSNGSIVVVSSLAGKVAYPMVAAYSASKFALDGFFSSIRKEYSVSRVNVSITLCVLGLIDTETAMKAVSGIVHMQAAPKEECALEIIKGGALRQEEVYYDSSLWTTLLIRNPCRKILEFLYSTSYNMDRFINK
The test can be described thus: 11 β-HSD1 SPA Assay (Scintillation Proximity Assay). Format: biochemical. Put shortly:
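E. coli-expressed human enzyme (30-100 nM) with tritiated cortisone 40 nM and NADPH 1 mM in HEPES buffer pH7.4, 2 hours at room temperature. Stopped with protein A SPA beads carrying anti-cortisol antibody and glycyrrhetinic acid; counted after overnight incubation. IC50 from percent inhibition between no-enzyme and no-compound signals.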
As to `O=C(NC1CC1)c1ccc(N2[C@@H]3CC[C@H]2C[C@@H](NC(=O)C2(c4ccc(Cl)cc4)CC2)C3)c(F)c1` [Example 148, 4-[3-endo-({[1-(4-chlorophenyl)cyclopropyl]carbonyl}amino)-8-azabicyclo[3.2.1]oct-8-yl]-N-cyclopropyl-3-fluorobenzamide], the IC50 is less than 200 nM. The figure for `CC(C)(Oc1ncc(C(F)(F)F)cc1Cl)C(=O)N[C@H]1C[C@H]2CC[C@@H](C1)N2c1ccc(C(N)=O)cn1` [Example 149, 6-{3-endo-[(2-{[3-chloro-5-(trifluoromethyl)pyridin-2-yl]oxy}-2-methylpropanoyl)amino]-8-azabicyclo[3.2.1]oct-8-yl}pyridine-3-carboxamide] is less than 200 nM; for `CC(C)(Oc1ccc(C(F)(F)F)cn1)C(=O)N[C@H]1C[C@H]2CC[C@@H](C1)N2c1ccc(C(N)=O)cn1` [Example 150] it is less than 200 nM; for `CC(C)(Oc1ncc(C(F)(F)F)cc1Cl)C(=O)N[C@H]1C[C@H]2CC[C@@H](C1)N2c1ccc(C(=O)NCC(F)(F)F)cn1` [Example 151, 6-{3-endo-[(2-{[3-chloro-5-(trifluoromethyl)pyridin-2-yl]oxy}-2-methylpropanoyl)amino]-8-azabicyclo[3.2.1]oct-8-yl}-N-(2,2,2-trifluoroethyl)pyridine-3-carboxamide] it is less than 200 nM. With `CC(C)(Oc1ccc(C(F)(F)F)cn1)C(=O)N[C@H]1C[C@H]2CC[C@@H](C1)N2c1ccc(C(=O)NCC(F)(F)F)cn1` [Example 152, 6-{3-endo-[(2-methyl-2-{[5-(trifluoromethyl)pyridin-2-yl]oxy}propanoyl)amino]-8-azabicyclo[3.2.1]oct-8-yl}-N-(2,2,2-trifluoroethyl)pyridine-3-carboxamide] the figure was less than 2000 nM. Take `CC(C)(Oc1ccc(F)c(Cl)c1Cl)C(=O)N[C@H]1C[C@H]2CC[C@@H](C1)N2c1ccc(S(C)(=O)=O)cn1` [Example 153, 2-[(2,3-dichloro-4-fluorophenyl)oxy]-2-methyl-N-{8-[5-(methylsulfonyl)pyridin-2-yl]-8-azabicyclo[3.2.1]oct-3-endo-yl}propanamide]: the IC50 is less than 200 nM. With `CC(C)(Oc1cc(Cl)c(F)cc1Cl)C(=O)N[C@H]1C[C@H]2CC[C@@H](C1)N2c1ccc(S(C)(=O)=O)cn1` [Example 154, 2-[(2,5-dichloro-4-fluorophenyl)oxy]-2-methyl-N-{8-[5-(methylsulfonyl)pyridin-2-yl]-8-azabicyclo[3.2.1]oct-3-endo-yl}propanamide] the figure was less than 200 nM; with `CC(C)(Oc1ccc(F)cc1Cl)C(=O)N[C@H]1C[C@H]2CC[C@@H](C1)N2c1ccc(S(C)(=O)=O)cn1` [Example 155, 2-[(2-chloro-4-fluorophenyl)oxy]-2-methyl-N-{8-[5-(methylsulfonyl)pyridin-2-yl]-8-azabicyclo[3.2.1]oct-3-endo-yl}propanamide], less than 200 nM; with `CC(C)(Oc1ccc(Cl)cc1Cl)C(=O)N[C@H]1C[C@H]2CC[C@@H](C1)N2c1cccc(S(C)(=O)=O)c1` [Example 156, 2-[(2,4-dichlorophenyl)oxy]-2-methyl-N-{8-[3-(methylsulfonyl)phenyl]-8-azabicyclo[3.2.1]oct-3-endo-yl}propanamide], less than 2000 nM. For `CC(C)(Oc1cc(Cl)c(F)cc1Cl)C(=O)N[C@H]1C[C@H]2CC[C@@H](C1)N2c1ccc(S(N)(=O)=O)cn1` [Example 157, N-{8-[5-(aminosulfonyl)pyridin-2-yl]-8-azabicyclo[3.2.1]oct-3-endo-yl}-2-[(2,5-dichloro-4-fluorophenyl)oxy]-2-methylpropanamide], the IC50 is less than 200 nM. As to `CC(C)(Oc1ccc(F)cc1Cl)C(=O)N[C@H]1C[C@H]2CC[C@@H](C1)N2c1ccc(S(N)(=O)=O)cn1` [Example 158, N-{8-[5-(aminosulfonyl)pyridin-2-yl]-8-azabicyclo[3.2.1]oct-3-endo-yl}-2-[(2-chloro-4-fluorophenyl)oxy]-2-methylpropanamide], the IC50 was less than 200 nM. With `CC(C)(Oc1ccc(F)cc1Cl)C(=O)N[C@H]1C[C@H]2CC[C@@H](C1)N2c1ncc(C(=O)NCC(F)(F)F)cc1F` [Example 159, 6-[3-endo-({2-[(2-chloro-4-fluorophenyl)oxy]-2-methylpropanoyl}amino)-8-azabicyclo[3.2.1]oct-8-yl]-5-fluoro-N-(2,2,2-trifluoroethyl)pyridine-3-carboxamide] the figure was less than 200 nM; with `CC(C)(Oc1ccc(Cl)cc1Cl)C(=O)N[C@H]1C[C@H]2CC[C@@H](C1)N2c1ncc(C(=O)NCC(F)(F)F)cc1F` [Example 160, 6-[3-endo-({2-[(2,4-dichlorophenyl)oxy]-2-methylpropanoyl}amino)-8-azabicyclo[3.2.1]oct-8-yl]-5-fluoro-N-(2,2,2-trifluoroethyl)pyridine-3-carboxamide], less than 200 nM; with `CC(C)(Oc1ncc(Cl)cc1Cl)C(=O)N[C@H]1C[C@H]2CC[C@@H](C1)N2c1ncc(C(=O)NCC(F)(F)F)cc1F` [Example 161, 6-[3-endo-({2-[(3,5-dichloropyridin-2-yl)oxy]-2-methylpropanoyl}amino)-8-azabicyclo[3.2.1]oct-8-yl]-5-fluoro-N-(2,2,2-trifluoroethyl)pyridine-3-carboxamide], less than 200 nM.

For the molecule `CC(C)(Oc1cc(Cl)c(F)cc1Cl)C(=O)N[C@H]1C[C@H]2CC[C@@H](C1)N2c1ncc(C(=O)NCC(F)(F)F)cc1F` [Example 162, 6-[3-endo-({2-[(2,5-dichloro-4-fluorophenyl)oxy]-2-methylpropanoyl}amino)-8-azabicyclo[3.2.1]oct-8-yl]-5-fluoro-N-(2,2,2-trifluoroethyl)pyridine-3-carboxamide], the IC50 was less than 200 nM. With `CC(C)(Oc1ccc(Cl)cc1Cl)C(=O)N[C@H]1C[C@H]2CC[C@@H](C1)N2c1ccc(C(=O)NC2CC2)nc1` [Example 163, N-cyclopropyl-5-[3-endo-({2-[(2,4-dichlorophenyl)oxy]-2-methylpropanoyl}amino)-8-azabicyclo[3.2.1]oct-8-yl]pyridine-2-carboxamide] the figure was less than 200 nM; with `CC(C)(Oc1ccccc1C(F)(F)F)C(=O)N[C@H]1C[C@H]2CC[C@@H](C1)N2c1ccc(C(N)=O)cn1` [Example 164, 6-{3-endo-[(2-methyl-2-{[2-(trifluoromethyl)phenyl]oxy}propanoyl)amino]-8-azabicyclo[3.2.1]oct-8-yl}pyridine-3-carboxamide], less than 200 nM; with `CC(C)(C(=O)N[C@H]1C[C@H]2CC[C@@H](C1)N2c1ccc(C(N)=O)cn1)c1ccc(F)c(F)c1` [Example 165, 6-(3-endo-{[2-(3,4-difluorophenyl)-2-methylpropanoyl]amino}-8-azabicyclo[3.2.1]oct-8-yl)pyridine-3-carboxamide], less than 200 nM.

As for `CC(C)(Oc1ccc(Cl)c(Cl)c1)C(=O)N[C@H]1C[C@H]2CC[C@@H](C1)N2c1ccc(C(=O)NCC(F)(F)F)cc1` [Example 166, 4-[3-endo-({2-[(3,4-dichlorophenyl)oxy]-2-methylpropanoyl}amino)-8-azabicyclo[3.2.1]oct-8-yl]-N-(2,2,2-trifluoroethyl)benzamide], the IC50 is less than 200 nM. The figure for `CC(C)(Oc1ccc(Cl)c(F)c1)C(=O)N[C@H]1C[C@H]2CC[C@@H](C1)N2c1ccc(C(=O)NCC(F)(F)F)cc1` [Example 167, 4-[3-endo-({2-[(4-chloro-3-fluorophenyl)oxy]-2-methylpropanoyl}amino)-8-azabicyclo[3.2.1]oct-8-yl]-N-(2,2,2-trifluoroethyl)benzamide] is less than 200 nM.
